Results taken from EP0435794A1, “Alkenyl- or heteroaryl thio, sulfone, sulfoxy herbicides” (RHONE-POULENC AGROCHIMIE, priority 1989, dated 1991).

Experiments:
Assay type in all cases: in vivo
Alopecurus myosuroides = assay: Exemple C: selectivity test in field crops, pre-emergence (weed); conditions: 24 days
Source text: (§1) Exemple C - Essai de sélectivité en grandes cultures avec application herbicide, en prélevée des espèces végétales
(§2) Dans des pots de 7 X 7 X 8 cm remplis de terre agricole légère, on sème un nombre de graines déterminé en fonction de l'espèce végétale et de la grosseur de la graine.
(§3) On recouvre ensuite les graines d'une couche de terre d'environ 3 mm d'épaisseur.
(§4) Les pots sont alors traités par pulvérisation de bouillie en quantité correspondant à une dose volumique d'application de 500 l/ha et contenant la matière active à la concentration désirée.
(§5) La bouillie a été préparée de la même manière qu'à l'exemple A.
(§6) Les pots traités sont ensuite placés dans des bacs destinés à recevoir l'eau d'arrosage, en subirrigation, et maintenus pendant 24 jours à température ambiante sous 70 % d'humidité relative.
(§7) Le relevé est effectué de la façon suivante:
(§8) Au bout de 24 jours, on mesure un pourcentage (D) de destruction du nombre de pieds dans le pot traité par rapport au nombre de plantes dans les pots non traités (témoin). On mesure, sur les plantes traitées restantes, le pourcentage de réduction de taille (RT) par rapport aux plantes témoins.
(§9) Le pourcentage de volume foliaire non détruit par le produit est donc donné par la formule: ([100-D] X [100-RT])/(100)= A [formula]
(§10) Cette valeur A est transformée en notation de 0 à 5 selon l'échelle suivante:
(§11) Ainsi, un produit est jugé comme sélectif vis à vis de la culture lorsque la valeur A notée est de 0 ou 1.
(§12) Les résultats obtenus sont présentés dans l'exemple C pour des doses d'application de 500, 1000, 2000 ou 4000 g de matière active par hectare selon les produits.
(§13) Les espèces végétales utilisées dans cet exemple sont: […]

Digitaria sanguinalis = assay: as above; conditions: 24 days
Source text: as §1, §2, §3, §4, §5, §6, §7, §8, §9, §10, §11, §12, §13

Echinochloa crus-galli = assay: as above; conditions: 24 days
Source text: as §1, §2, §3, §4, §5, §6, §7, §8, §9, §10, §11, §12, §13

Panicum milicaeum = assay: as above; conditions: 24 days
Source text: as §1, §2, §3, §4, §5, §6, §7, §8, §9, §10, §11, §12, §13

Setaria faberii = assay: as above; conditions: 24 days
Source text: as §1, §2, §3, §4, §5, §6, §7, §8, §9, §10, §11, §12, §13

Sorghum halepense = assay: as above; conditions: 24 days
Source text: as §1, §2, §3, §4, §5, §6, §7, §8, §9, §10, §11, §12, §13

blé = assay: Exemple C: selectivity test in field crops, pre-emergence (crop); conditions: 24 days, 0 or 1 = selective; also: ranges in brackets are in %
Source text: as §1, §2, §3, §4, §5, §6, §7, §8, §9, §10, §11, §12
(§14) Les espèces végétales utilisées dans cet exemple sont:
(§15) Comme on peut le voir sur le tableau de résultats de cet exemple C, de nombreux produits présentent une excellente activité antigraminée de prélevée tout en montrant une excellente sélectivité pour 1 ou 2 ou 3 ou 4 des 4 cultures testées = blé, maïs, riz, soja.

maïs = assay: as above; conditions: 24 days, 0 or 1 = selective; also: ranges in brackets are in %
Source text: as §1, §2, §3, §4, §5, §6, §7, §8, §9, §10, §11, §12, §14, §15

riz = assay: as above; conditions: 24 days, 0 or 1 = selective; also: ranges in brackets are in %
Source text: as §1, §2, §3, §4, §5, §6, §7, §8, §9, §10, §11, §12, §14, §15

soja = assay: as above; conditions: 24 days, 0 or 1 = selective; also: ranges in brackets are in %
Source text: as §1, §2, §3, §4, §5, §6, §7, §8, §9, §10, §11, §12, §14, §15

| SMILES | Notation de l'activité herbicide ALO (Alopecurus myosuroides; dose 0.5 Kg m.a./ha) | Notation de l'activité herbicide DIG (Digitaria sanguinalis; dose 0.5 Kg m.a./ha) | Notation de l'activité herbicide ECh (Echinochloa crus-galli; dose 0.5 Kg m.a./ha) | Notation de l'activité herbicide PAN (Panicum milicaeum; dose 0.5 Kg m.a./ha) | Notation de l'activité herbicide SET (Setaria faberii; dose 0.5 Kg m.a./ha) | Notation de l'activité herbicide SOR (Sorghum halepense; dose 0.5 Kg m.a./ha) | Notation de l'activité herbicide TRZ (blé; dose 0.5 Kg m.a./ha) | Notation de l'activité herbicide ZEA (maïs; dose 0.5 Kg m.a./ha) | Notation de l'activité herbicide ORY (riz; dose 0.5 Kg m.a./ha) | Notation de l'activité herbicide GLY (soja; dose 0.5 Kg m.a./ha) | other results |
| --- | --- | --- | --- | --- | --- | --- | --- | --- | --- | --- | --- |
| O=S(=O)(CC(O)(CBr)c1ccc(F)c(Cl)c1)c1ccsc1 (stereo not shown) [compound 65] | 0 (90 à 100) | 5 (O à 10) | 5 (O à 10) | 3 (30 à 50) | 0 (90 à 100) | 5 (O à 10) | 0 (90 à 100) | 0 (90 à 100) | 3 (30 à 50) | 0 (90 à 100) |  |
| Cc1cc(C(O)(CBr)CS(=O)(=O)c2ccsc2)ccc1F (stereo not shown) [compound 66] |  |  |  |  |  |  |  |  |  |  | Notation de l'activité herbicide ALO (Alopecurus myosuroides; dose 1 Kg m.a./ha): 3 (30 à 50); Notation de l'activité herbicide DIG (Digitaria sanguinalis; dose 1 Kg m.a./ha): 5 (O à 10); Notation de l'activité herbicide ECh (Echinochloa crus-galli; dose 1 Kg m.a./ha): 5 (O à 10); Notation de l'activité herbicide PAN (Panicum milicaeum; dose 1 Kg m.a./ha): 3 (30 à 50); Notation de l'activité herbicide SET (Setaria faberii; dose 1 Kg m.a./ha): 3 (30 à 50); Notation de l'activité herbicide SOR (Sorghum halepense; dose 1 Kg m.a./ha): 5 (O à 10); Notation de l'activité herbicide TRZ (blé; dose 1 Kg m.a./ha): 1 (70 à 90); Notation de l'activité herbicide ZEA (maïs; dose 1 Kg m.a./ha): 2 (50 à 70); Notation de l'activité herbicide ORY (riz; dose 1 Kg m.a./ha): 2 (50 à 70); Notation de l'activité herbicide GLY (soja; dose 1 Kg m.a./ha): 1 (70 à 90) |
| O=S(=O)(CC(O)(CBr)c1cccc(F)c1)c1sccc1Cl (stereo not shown) [compound 67] | 2 (50 à 70) | 5 (O à 10) | 4 (10 à 30) | 4 (10 à 30) | 4 (10 à 30) | 1 (70 à 90) | 0 (90 à 100) | 1 (70 à 90) | 0 (90 à 100) | 0 (90 à 100) |  |
| C=C(CS(=O)(=O)C=C(C)C)c1ccccc1 [compound 73] |  |  |  |  |  |  |  |  |  |  | Notation de l'activité herbicide ALO (Alopecurus myosuroides; dose 2 Kg m.a./ha): 4 (10 à 30); Notation de l'activité herbicide DIG (Digitaria sanguinalis; dose 2 Kg m.a./ha): 3 (30 à 50); Notation de l'activité herbicide ECh (Echinochloa crus-galli; dose 2 Kg m.a./ha): 5 (O à 10); Notation de l'activité herbicide PAN (Panicum milicaeum; dose 2 Kg m.a./ha): 3 (30 à 50); Notation de l'activité herbicide SET (Setaria faberii; dose 2 Kg m.a./ha): 0 (90 à 100); Notation de l'activité herbicide SOR (Sorghum halepense; dose 2 Kg m.a./ha): 3 (30 à 50); Notation de l'activité herbicide TRZ (blé; dose 2 Kg m.a./ha): 1 (70 à 90); Notation de l'activité herbicide ZEA (maïs; dose 2 Kg m.a./ha): 2 (50 à 70); Notation de l'activité herbicide ORY (riz; dose 2 Kg m.a./ha): 0 (90 à 100); Notation de l'activité herbicide GLY (soja; dose 2 Kg m.a./ha): 0 (90 à 100) |
